Results: PMC11813358 (Journal of Microbiology and Biotechnology, 2024)
Substitutions are numbered along the chain they refer to. Where “and” joins values, the source holds several entries; their conditions need not be identical. Equal entries are not always repeated. Entries after “also recorded” stand apart in the source; their conditions may differ. Blank lines part the entries; values can stand above or below the molecule they belong to.

How the values were obtained:
Assay type in all cases: cell-based
[1] = molecular target: T1, Human 5-hydroxytryptamine receptor 3A subtype (wild-type 5-HT3A receptor) (Homo sapiens, UniProt P46098); assay: Two-electrode voltage clamp of 5-HT-induced inward current (I5-HT) in Xenopus oocytes expressing wild-type 5-HT3A receptor; conditions: for Imax of 5-HT concentration-response: normalized to maximum 5-HT current
T1 construct: host or cells: Xenopus laevis oocytes injected with cRNA
T1 sequence (P46098 24-478): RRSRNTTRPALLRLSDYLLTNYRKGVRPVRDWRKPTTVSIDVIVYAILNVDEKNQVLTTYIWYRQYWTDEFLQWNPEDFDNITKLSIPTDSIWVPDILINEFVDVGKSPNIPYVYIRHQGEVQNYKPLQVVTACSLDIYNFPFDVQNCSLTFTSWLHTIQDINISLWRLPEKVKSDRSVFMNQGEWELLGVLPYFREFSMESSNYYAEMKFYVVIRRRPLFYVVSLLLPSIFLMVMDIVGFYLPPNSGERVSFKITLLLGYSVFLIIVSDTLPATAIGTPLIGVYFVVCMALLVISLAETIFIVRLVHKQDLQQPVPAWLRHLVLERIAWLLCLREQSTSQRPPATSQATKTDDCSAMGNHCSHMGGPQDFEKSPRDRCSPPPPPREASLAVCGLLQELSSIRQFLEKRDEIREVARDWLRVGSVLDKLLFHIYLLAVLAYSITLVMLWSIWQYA
Description: (§1) The experimental procedure follows the approach outlined in the previous study, but is summarized briefly as follows. The plasmid containing the cDNAs for the 5-HT3A receptor was digested with Xho I restriction enzymes to linearize the cDNAs, which were then transcribed into cRNA using the Ambion mMESSAGE mMACHINE transcription kit with T7 RNA polymerase (Thermo Fisher Scientific Inc., USA). After transcription, the cRNA was dissolved in nuclease-free water, and its size and concentration were assessed via electrophoresis and spectrophotometry (DeNovix Inc., USA). The cRNA was aliquoted to a concentration of 1 μg/μl for storage at -80°C. Specific mutations were introduced into the 5-HT3A receptor using the QuickChange site-directed mutagenesis kit (Agilent Technologies Inc., USA) and PCR. The correctness of the mutations was verified by sequencing the final mutated DNA (CosmoGenetech Co., Republic of Korea).
(§2) The study utilized female Xenopus laevis frogs that were kept according to institutional protocols (CNU IACUC-YB-2016-07, July 2016), requiring a stable temperature of around 20°C and a 12-h light-dark cycle. Frog care adhered to standards from the Korean Xenopus Resource Center for Research (KXRCR000001). Anesthesia was induced by placing the frogs on ice, after which a small abdominal incision was made to extract oocytes, which were isolated using OR2 buffer (containing 82.5 mM NaCl, 2 mM KCl, 1 mM MgCl2, and 5 mM HEPES, pH 7.5) with collagenase. After rinsing with ND96 buffer (which includes 96 mM NaCl, 2 mM KCl, 1 mM MgCl2, 1.8 mM CaCl2, and 5 mM HEPES, pH 7.5), stage V-VI oocytes were selected and incubated at 18°C with ND96 incubation buffer containing sodium pyruvate and gentamicin for 2 to 3 days. Finally, 40 ng of 5HT3A cRNA was injected into each oocyte using a Nanoject automatic oocyte injector.
(§3) Two to three days post-RNA injection, the expression of the 5-HT3A protein in the oocytes was verified using a two-electrode oocyte clamp (OC-725C, Warner Instruments, LLC, USA). An agar bridge facilitated electrical connections, while ND96 buffer flowed continuously into the net chamber at 2 ml/min. Two glass microelectrodes filled with 3 M KCl (0.2 MΩ resistance) accessed the oocytes. To analyze the current-voltage relationship, voltages from −80 to +50 mV were applied, maintaining a holding potential of −80 mV. Current data were collected with a Digidata 1550 series device and analyzed using pCLAMP 10 software (Molecular Devices LLC, USA).
(§4) The Hill equation was used for graph fitting in OriginPro 7.0, as detailed below:
(§5) y = Vmin + (Vmax − Vmin) * [x]^n/([IC50]^n + [x]^n)
In this formula, Vmax and Vmin represent the highest and lowest current values, respectively. […] The variable x signifies the concentration of these compounds, while n corresponds to the Hill coefficient.

[2] = molecular target: T2, L260A mutant 5-HT3A receptor (Homo sapiens, UniProt P46098, L282A); assay: Two-electrode voltage clamp of I5-HT in oocytes expressing L260A mutant 5-HT3A receptor; conditions: 100 μM 5-HT
T2 construct: expressed in transfected cells; host or cells: Xenopus laevis oocytes injected with cRNA
T2 sequence (P46098 24-478 L282A): T1 sequence (P46098 24-478) with L259A
Description: as §1
as §2, with “Finally, 40 ng of 5HT3A cRNA was injected into each oocyte using a Nanoject automatic oocyte injector.” left out
(§6) Two to three days post-RNA injection, the expression of the 5-HT3A protein in the oocytes was verified using a two-electrode oocyte clamp (OC-725C, Warner Instruments, LLC, USA). […] Current data were collected with a Digidata 1550 series device and analyzed using pCLAMP 10 software (Molecular Devices LLC, USA). […]

[3] = molecular target: T3, V264A mutant 5-HT3A receptor (Homo sapiens, UniProt P46098, V286A); assay: Two-electrode voltage clamp of I5-HT in oocytes expressing V264A mutant 5-HT3A receptor; conditions: 100 μM 5-HT
T3 construct: expressed in transfected cells; host or cells: Xenopus laevis oocytes injected with cRNA
T3 sequence (P46098 24-478 V286A): T1 sequence (P46098 24-478) with V263A
Description: as §1
as §2, with “Finally, 40 ng of 5HT3A cRNA was injected into each oocyte using a Nanoject automatic oocyte injector.” left out
as §6

[4] = molecular target: T4, double mutant (L260A + V264A) 5-HT3A receptor (Homo sapiens, UniProt P46098, L282A/V286A); assay: Two-electrode voltage clamp of I5-HT in oocytes expressing double mutant (L260A/V264A) 5-HT3A receptor; conditions: for Inhibitory effect of MDL 72222 on double mutant: 0.5 μM MDL 72222
T4 construct: expressed in transfected cells; host or cells: Xenopus laevis oocytes injected with cRNA
T4 sequence (P46098 24-478 L282A/V286A): T1 sequence (P46098 24-478) with L259A, V263A
Description: as §1, §2, §3, §4, §5
In this formula, Vmax and Vmin represent the highest and lowest current values, respectively. […]

[5] = 5-HT + 3 μM nicergoline, −80 mV
[6] = 5-HT + 30 μM nicergoline, −80 mV
[7] = wild type, co-treatment with 100 μM 5-HT, −80 mV
[8] = −80 mV, unit not printed in Table 3, taken

5-HT current when 5-HT applied immediately following nicergoline, % of the initial (baseline) current ([1]; 30 μM nicergoline applied alone, then 100 μM 5-HT at 0 sec washout): 56.2 ± 10.9%
Imax of 5-HT concentration-response [1, 5]: 70.6 ± 2.9
nH of 5-HT concentration-response [1, 5]: 1.3 ± 0.4
Imax of 5-HT concentration-response [1, 6]: 45.8 ± 8.6
nH of 5-HT concentration-response [1, 6]: 1.2 ± 0.3
Mode of antagonism versus 5-HT ([1]; 5-HT concentration-response in presence of 3 and 30 μM nicergoline): non-competitive
IC50 ([1]; wild type, co-treatment with 100 μM 5-HT, holding potential −80 mV): 7.7 ± 0.9 µM
Hill coefficient (nH) of inhibition [1, 7]: 1.4 ± 0.2
Maximum inhibition of I5-HT [1, 7]: 91.1 ± 3.4%
Maximum inhibition of I5-HT ([1]; wild type, co-treatment with 100 μM 5-HT, −80 mV, listed as Nicergoline): approximately 91%
nH [2]: 1.2 ± 0.3
Maximum inhibition of I5-HT ([2]; −80 mV): 51% and 51.9 ± 2.9%
IC50 [2, 8]: 57.4 ± 5.6 µM
nH [3]: 0.8 ± 0.2
Maximum inhibition of I5-HT ([3]; −80 mV): 24% and 24.1 ± 0.8%
IC50 [3, 8]: 54.7 ± 5 µM
Inhibitory effect of nicergoline on double mutant ([4]; 100 μM nicergoline, double mutant (L260A/V264A)): absent; also recorded: abolished
Maximum inhibition of I5-HT ([4]; L260A + V264A double mutant, 100 μM 5-HT, −80 mV): 2.7 ± 1.3%
Structure (SMILES): CO[C@]12C[C@@H](COC(=O)c3cncc(Br)c3)CN(C)[C@@H]1Cc1cn(C)c3cccc2c13 [nicergoline]

Structure (SMILES): CN1[C@@H]2CC[C@H]1C[C@@H](OC(=O)c1cc(Cl)cc(Cl)c1)C2 [MDL 72222]
Inhibitory effect of MDL 72222 on double mutant ([4]; double mutant (L260A/V264A)): strongly inhibited
Inhibitory effect of MDL 72222 on double mutant ([4]; double mutant (L260A/V264A), listed as MDL72222): remained unaffected

Imax of 5-HT concentration-response ([1]; Control, 5-HT alone, −80 mV): 101.5 ± 4.6
nH of 5-HT concentration-response ([1]; Control, 5-HT alone, −80 mV): 1.2 ± 0.1
Structure (SMILES): NCCc1c[nH]c2ccc(O)cc12 [serotonin, 5-hydroxytryptamine]
